For 11 compounds, IC50 results are on record in publication PMC4980831 (Arzneimittel-Forschung, 2009).

As a reminder, the IC50 is the midpoint of a concentration-inhibition curve.

The target in experiment [1] is PDE5 (Homo sapiens, UniProt O76074). Nature of the experiment: IMAP fluorescence polarization PDE assay. It counts as biochemical. Background: Fluorescence polarisation rises when a labelled molecule tumbles more slowly, as on binding a larger partner.
The target in experiment [2] is PDE11 (Homo sapiens, UniProt Q9HCR9). Nature of the experiment: IMAP fluorescence polarization PDE assay. In kind it is biochemical.
Chain of PDE11 (Q9HCR9 whole entry): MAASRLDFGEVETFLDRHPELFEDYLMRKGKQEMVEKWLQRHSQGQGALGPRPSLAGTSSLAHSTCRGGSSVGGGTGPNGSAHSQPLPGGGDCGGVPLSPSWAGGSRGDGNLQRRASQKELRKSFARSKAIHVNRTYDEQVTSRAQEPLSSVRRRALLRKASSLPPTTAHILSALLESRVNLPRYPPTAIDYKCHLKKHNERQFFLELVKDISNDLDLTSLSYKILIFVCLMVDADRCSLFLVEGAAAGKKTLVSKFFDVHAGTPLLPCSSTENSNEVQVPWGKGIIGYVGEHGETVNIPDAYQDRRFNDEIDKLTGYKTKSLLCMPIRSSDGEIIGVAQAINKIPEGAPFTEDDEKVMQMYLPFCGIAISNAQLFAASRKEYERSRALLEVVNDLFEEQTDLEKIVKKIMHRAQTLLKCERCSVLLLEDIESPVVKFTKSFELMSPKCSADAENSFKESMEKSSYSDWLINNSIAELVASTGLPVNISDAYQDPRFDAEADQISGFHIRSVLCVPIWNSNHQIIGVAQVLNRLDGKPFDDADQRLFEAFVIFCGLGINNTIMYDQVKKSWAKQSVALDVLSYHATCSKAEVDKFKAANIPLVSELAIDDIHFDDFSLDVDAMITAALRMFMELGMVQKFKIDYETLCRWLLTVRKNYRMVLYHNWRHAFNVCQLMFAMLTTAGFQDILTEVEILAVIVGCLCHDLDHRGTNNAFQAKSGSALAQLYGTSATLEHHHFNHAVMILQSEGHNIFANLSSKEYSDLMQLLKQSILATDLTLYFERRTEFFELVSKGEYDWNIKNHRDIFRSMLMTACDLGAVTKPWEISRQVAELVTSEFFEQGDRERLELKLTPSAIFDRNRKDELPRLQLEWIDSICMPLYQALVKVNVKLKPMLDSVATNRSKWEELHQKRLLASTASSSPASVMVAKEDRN

With `COC(=O)[C@@H]1Cc2c([nH]c3ccccc23)[C@@H](c2cc(OC)ccc2OC)N1` [IV, Methyl (1R,3S)-1-(2,5-dimethoxyphenyl)-2,3,4,9-tetrahydro-1H-β-carboline-3-carboxylate], the figures for the IC50 in experiment [1] and in experiment [2] were 17.4 ± 1.09 µM and greater than 100 µM, respectively.

Take `CCN1C(=O)[C@@H]2Cc3c([nH]c4ccccc34)[C@@H](c3cc(OC)ccc3OC)N2C1=O` [VIII, (5R,11aS)-2-Ethyl-5-(2,5-dimethoxyphenyl)-5,6,11,11a-tetrahydro-1H-imidazo[1′,5′:1,6]pyrido [3,4-b]indole-1,3(2H)-dione]: the results for the IC50 in experiment [1] and in experiment [2] were 87.4 ± 1.1 µM and greater than 100 µM, respectively.

Regarding `CCN1C(=O)[C@H]2Cc3c([nH]c4ccccc34)[C@@H](c3cc(OC)ccc3OC)N2C1=O` [V, (5R,11aR)-2-Ethyl-5-(2,5-dimethoxyphenyl)-5,6,11,11a-tetrahydro-1H-imidazo[1′,5′:1,6]pyrido [3,4-b]indole-1,3(2H)-dione], the figures for the concentration for half-maximal inhibition (IC50) in experiment [1] and in experiment [2] were 5 ± 1.14 µM and greater than 100 µM, respectively.

Take `CC1=C(CC(=O)O)c2cc(F)ccc2/C1=C\c1ccc(S(C)(=O)=O)cc1` [Exisulind, reference compound]: the concentration for half-maximal inhibition (IC50) was 295 ± 1.11 µM in experiment [1] and greater than 300 µM in experiment [2].

For the compound `COC(=O)[C@@H]1Cc2c([nH]c3ccccc23)[C@H](c2cc(OC)ccc2OC)N1` [III, Methyl (1S,3S)-1-(2,5-dimethoxyphenyl)-2,3,4,9-tetrahydro-1H-β-carboline-3-carboxylate], the results for the concentration for half-maximal inhibition (IC50) in experiment [1] and in experiment [2] were 14.3 ± 1.09 µM and greater than 100 µM, respectively.

Take `CCN1C(=O)[C@@H]2Cc3c([nH]c4ccccc34)[C@@H](c3cc(OC)ccc3OC)N2C1=S` [IX, (5R,11aS)-2-ethyl-1-oxo-5-(2,5-dimethoxyphe-nyl)-5,6,11,11a-tetrahydro-1H-imidazo[1′,5′:1,6] pyrido[3,4-b]indole-3 (2H)-thione]: the results for the concentration for half-maximal inhibition (IC50) in experiment [1] and in experiment [2] were 78.6 ± 1.14 µM and greater than 100 µM, respectively.

As for `CCN1C(=O)[C@@H]2Cc3c([nH]c4ccccc34)[C@H](c3cc(OC)ccc3OC)N2C1=O` [VII, (5S,11aS)-2-Ethyl-5-(2,5-dimethoxyphenyl)-5,6,11,11a-tetrahydro-1H-imidazo[1′,5′:1,6]pyrido [3,4-b]indole-1,3(2H)-dione], the IC50 in experiment [1] and in experiment [2] was greater than 100 µM in each case.

With `COC(=O)[C@H]1Cc2c([nH]c3ccccc23)[C@@H](c2cc(OC)ccc2OC)N1` [I, Methyl (1R,3R)-1-(2,5-dimethoxyphenyl)-2,3,4,9-tetrahydro-1H-β-carboline-3-carboxylate], the figures for the IC50 in experiment [1] and in experiment [2] were 3.9 ± 1.09 µM and greater than 100 µM, respectively.

As for `CCN1C(=O)[C@H]2Cc3c([nH]c4ccccc34)[C@H](c3cc(OC)ccc3OC)N2C1=S` [X, (5S,11aR)-2-ethyl-1-oxo-5-(2,5-dimethoxy-phenyl)-5,6,11,11a-tetrahydro-1H-imidazo [1′,5′:1,6]pyrido[3,4-b]indole-3 (2H)-thione], the IC50 in experiment [1] and in experiment [2] was greater than 100 µM each time.

Turning to `COC(=O)[C@H]1Cc2c([nH]c3ccccc23)[C@H](c2cc(OC)ccc2OC)N1` [II, Methyl (1S,3R)-1-(2,5-dimethoxyphenyl)-2,3,4,9-tetrahydro-1H-β-carboline-3-carboxylate], the half-maximal inhibitory concentration (IC50) in experiment [1] and in experiment [2] was greater than 100 µM in each case.

On to `CCN1C(=O)[C@H]2Cc3c([nH]c4ccccc34)[C@H](c3cc(OC)ccc3OC)N2C1=O` [VI, (5S,11aR)-2-Ethyl-5-(2,5-dimethoxyphenyl)-5,6,11,11^a-tetrahydro-1H-imidazo[1′,5′:1,6]pyrido [3,4-b]indole-1,3(2H)-dione], for which the 50% inhibitory concentration (IC50) in experiment [1] and in experiment [2] was greater than 100 µM each time.
